PubChem BioAssay AID306 (DTP/NCI, 2004)
“And” between values parts separate entries of the source, which are not always exact repeats. Identical values can stand only once. Inconclusive results and toxic doses are left out. The calls were made as follows: active = survival T/C of 150% or more; inactive = T/C below 125% in these data.

Tested on: BDF1 mice, L1210 Methyl-GAG-resistant leukemia, survival T/C
Experiment: NCI In Vivo Anticancer Drug Screen. Data for tumor model L1210 Leukemia resistant to Methyl-GAG; NSC 32946 (subcutaneous) in B6D2F1 (BDF1) mice
Conditions: endpoint: mean survival time, higher = longer survival
Description: The antitumor activity of compounds was measured in mice bearing transplantable tumors. Survival or tumor size were measured and the results are expressed as the measurement made in the treated group (T) divided by the measurement made in the vehicle treated control group (C). The tumor model used in this assay is L1210 Leukemia resistant to Methyl-GAG; NSC 32946 (subcutaneous) in B6D2F1 (BDF1) mice

[1] = dose: 2.5 mg/kg/injection, schedule: Q01DX Z (ip), vehicle: carboxymethylcellulose (CMC)
[2] = dose: 5.0 mg/kg/injection, schedule: Q01DX Z (ip), vehicle: carboxymethylcellulose (CMC)
[3] = dose: 10.0 mg/kg/injection, schedule: Q01DX Z (ip), vehicle: carboxymethylcellulose (CMC)
[4] = dose: 12.5 mg/kg/injection, schedule: Q01DX Z (ip), vehicle: saline
[5] = dose: 20.0 mg/kg/injection, schedule: Q01DX Z (ip), vehicle: carboxymethylcellulose (CMC)
[6] = dose: 25.0 mg/kg/injection, schedule: Q01DX Z (ip), vehicle: saline
[7] = dose: 12.5 mg/kg/injection, schedule: Q01DX Z (ip), vehicle: carboxymethylcellulose (CMC)
[8] = dose: 25.0 mg/kg/injection, schedule: Q01DX Z (ip), vehicle: carboxymethylcellulose (CMC)
[9] = dose: 100.0 mg/kg/injection, schedule: Q01DX Z (ip), vehicle: carboxymethylcellulose (CMC)

Measured: T/C

Nc1nc(=S)c2[nH]cnc2[nH]1
inactive: dose: 0.12 mg/kg/injection, schedule: Q01DX Z (ip), vehicle: carboxymethylcellulose (CMC) 98 % of control | dose: 0.25 mg/kg/injection, schedule: Q01DX Z (ip), vehicle: carboxymethylcellulose (CMC) 93 % of control | dose: 0.5 mg/kg/injection, schedule: Q01DX Z (ip), vehicle: carboxymethylcellulose (CMC) 96 % of control | dose: 4.0 mg/kg/injection, schedule: Q01DX Z (ip), vehicle: carboxymethylcellulose (CMC) 118 % of control
active: dose: 2.0 mg/kg/injection, schedule: Q01DX Z (ip), vehicle: carboxymethylcellulose (CMC) 164 % of control and 168 % of control

NC(=O)c1ccc(N)nc1
inactive: dose: 0.31 mg/kg/injection, schedule: Q01DX Z (ip), vehicle: saline 106 % of control | dose: 0.31 mg/kg/injection, schedule: Q01DX Z (ip), vehicle: water 102 % of control | dose: 0.63 mg/kg/injection, schedule: Q01DX Z (ip), vehicle: saline 101 % of control | dose: 0.63 mg/kg/injection, schedule: Q01DX Z (ip), vehicle: water 115 % of control | dose: 1.25 mg/kg/injection, schedule: Q01DX Z (ip), vehicle: saline 98 % of control

NC(Cc1ccc(N(CCCl)CCCl)cc1)C(=O)O (configuration not stated)
inactive: dose: 1.25 mg/kg/injection, schedule: Q01DX Z (ip), vehicle: carboxymethylcellulose (CMC) 104 % of control | [1] 106 % of control | dose: 3.2 mg/kg/injection, schedule: Q01DX Z (ip), vehicle: saline 94 % of control | [2] 106 % of control | dose: 6.3 mg/kg/injection, schedule: Q01DX Z (ip), vehicle: saline 118 % of control | [3] 120 % of control | [4] 113 % of control | [5] 98 % of control | [6] 94 % of control

CS(=O)(=O)OCCCl
inactive: [7] 89 % of control | [8] 96 % of control | dose: 50.0 mg/kg/injection, schedule: Q01DX Z (ip), vehicle: carboxymethylcellulose (CMC) 92 % of control | [9] 113 % of control

O=P1(N(CCCl)CCCl)NCCCO1 (configuration not stated)
inactive: dose: 6.25 mg/kg/injection, schedule: Q01DX Z (ip), vehicle: saline 93 % of control | [4] 122 % of control and 123 % of control | dose: 100.0 mg/kg/injection, schedule: Q01DX Z (ip), vehicle: saline 90 % of control and 98 % of control
257 % of control and 98 % of control: dose: 50.0 mg/kg/injection, schedule: Q01DX Z (ip), vehicle: saline
active: [6] 254 % of control and 151 % of control

CC/C(=C(/CC)c1ccc(O)cc1)c1ccc(O)cc1
inactive: dose: 31.25 mg/kg/injection, schedule: Q01DX Z (sc), vehicle: steriod suspending solution 97 % of control | dose: 62.5 mg/kg/injection, schedule: Q01DX Z (sc), vehicle: steriod suspending solution 110 % of control | dose: 125.0 mg/kg/injection, schedule: Q01DX Z (sc), vehicle: steriod suspending solution 100 % of control | dose: 250.0 mg/kg/injection, schedule: Q01DX Z (sc), vehicle: steriod suspending solution 87 % of control

O=c1[nH]c(=O)n(C2CC(O)C(CO)O2)cc1F (configuration not stated)
inactive: [8] 112 % of control | [9] 121 % of control | dose: 200.0 mg/kg/injection, schedule: Q01DX Z (ip), vehicle: carboxymethylcellulose (CMC) 87 % of control and 103 % of control

CCOC(=O)NP(=O)(N1CC1(C)C)N1CC1(C)C (configuration not stated)
inactive: dose: 62.5 mg/kg/injection, schedule: Q01DX Z (ip), vehicle: carboxymethylcellulose (CMC) 95 % of control | dose: 125.0 mg/kg/injection, schedule: Q01DX Z (ip), vehicle: carboxymethylcellulose (CMC) 95 % of control | dose: 250.0 mg/kg/injection, schedule: Q01DX Z (ip), vehicle: carboxymethylcellulose (CMC) 97 % of control | dose: 500.0 mg/kg/injection, schedule: Q01DX Z (ip), vehicle: carboxymethylcellulose (CMC) 93 % of control

Nc1nc(SCc2ccccc2)c2[nH]cnc2n1
active: [7] 154 % of control
inactive: dose: 6.25 mg/kg/injection, schedule: Q01DX Z (ip), vehicle: carboxymethylcellulose (CMC) 104 % of control

CC1CCOS(=O)O1 (configuration not stated)
inactive: [1] 95 % of control | [2] 101 % of control | [3] 97 % of control | [5] 97 % of control | dose: 40.0 mg/kg/injection, schedule: Q01DX Z (ip), vehicle: carboxymethylcellulose (CMC) 95 % of control | dose: 80.0 mg/kg/injection, schedule: Q01DX Z (ip), vehicle: carboxymethylcellulose (CMC) 92 % of control
